Test results taken from the supplement of paper PMC5579334.
± gives the standard deviation of the averaged measurements.

What was measured:
[1] = tested on: HSC2 (primary human Schwann cells); test: % inhibition of CellTiter-Glo viability at highest tested concentration (72 h), relative to DMSO and benzethonium chloride controls; higher = more inhibition
Procedure, shortened: (§1)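 Viability of MPNST cell lines and primary human Schwann cells was read as CellTiter-Glo ATP luminescence after 72 h at 37 °C, 5% CO2, in 384-well plates seeded with 750–1000 cells per well. Each compound had been preprinted at five concentrations in 10-fold steps. Signals were scaled between vehicle and positive-control wells, duplicates averaged where present, and fitted with four-parameter logistic curves. Drug sensitivity score and relative IC50 (censored at the top concentration) come from those fits, and percent inhibition is taken at the top concentration.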

[2] = tested on: HSC1 (primary human Schwann cells); test: as above
Procedure, shortened: as §1

YST-1 [3] = test: as above
Procedure, shortened: as §1

STS26T [4] = test: as above
Procedure, shortened: as §1

ST8814 [5] = test: as above
Procedure, shortened: as §1

HS-PSS [6] = test: as above
Procedure, shortened: as §1

HS-Sch-2 [7] = test: as above
Procedure, shortened: as §1

S1507-2 [8] = test: as above
Procedure, shortened: as §1

S462 [9] = test: as above
Procedure, shortened: as §1

[10] = tested on: HSC2 (primary human Schwann cells); test: drug sensitivity score (DSS, CellTox-Green cytotoxicity, 72 h) (DSS (dimensionless)); higher = more cytotoxic; extreme values may be limits of the assay
Procedure, shortened: (§2)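 MPNST cell lines and primary human Schwann cells were grown for 72 h at 37 °C in 384-well plates containing five 10-fold compound dilutions. CellTox-Green, added before seeding at a final 1:1000 dilution, gave fluorescence from DNA released by disrupted cells, and signals were scaled to vehicle and positive-control wells. Curves were fitted with a four-parameter logistic model. Drug sensitivity score and relative IC50 come from these fits, with IC50 censored at the top concentration.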

[11] = tested on: HSC1 (primary human Schwann cells); test: as above
Procedure, shortened: as §2

STS26T [12] = test: as above
Procedure, shortened: as §2

ST8814 [13] = test: as above
Procedure, shortened: as §2

HS-PSS [14] = test: as above
Procedure, shortened: as §2

S1507-2 [15] = test: as above
Procedure, shortened: as §2

[16] = tested on: HSC2 (primary human Schwann cells); test: drug sensitivity score (DSS, CellTiter-Glo viability, 72 h) (DSS (dimensionless)); higher = more sensitive; extreme values may be limits of the assay
Procedure, shortened: as §1

[17] = tested on: HSC1 (primary human Schwann cells); test: as above
Procedure, shortened: as §1

YST-1 [18] = test: as above
Procedure, shortened: as §1

STS26T [19] = test: as above
Procedure, shortened: as §1

ST8814 [20] = test: as above
Procedure, shortened: as §1

HS-PSS [21] = test: as above
Procedure, shortened: as §1

HS-Sch-2 [22] = test: as above
Procedure, shortened: as §1

S1507-2 [23] = test: as above
Procedure, shortened: as §1

S462 [24] = test: as above
Procedure, shortened: as §1

Row | Structure (SMILES) | % inhibition [1] [%] | % inhibition [2] [%] | % inhibition (YST-1 [3]) [%] | % inhibition (STS26T [4]) [%] | % inhibition (ST8814 [5]) [%] | % inhibition (HS-PSS [6]) [%] | % inhibition (HS-Sch-2 [7]) [%] | % inhibition (S1507-2 [8]) [%] | % inhibition (S462 [9]) [%] | drug sensitivity score [10] | drug sensitivity score [11] | drug sensitivity score (STS26T [12]) | drug sensitivity score (ST8814 [13]) | drug sensitivity score (HS-PSS [14]) | drug sensitivity score (S1507-2 [15]) | drug sensitivity score [16] | drug sensitivity score [17] | drug sensitivity score (YST-1 [18]) | drug sensitivity score (STS26T [19]) | drug sensitivity score (ST8814 [20]) | drug sensitivity score (HS-PSS [21]) | drug sensitivity score (HS-Sch-2 [22]) | drug sensitivity score (S1507-2 [23]) | drug sensitivity score (S462 [24])
1 | CC(=O)c1c(C)c2cnc(Nc3ccc(N4CCNCC4)cn3)nc2n(C2CCCC2)c1=O [Palbociclib] (max concentration tested 10000 nM) | 45.6 | 31.6 | 44.5 | 36.7 | 28 | 41.6 | 68.8 | 38.8 ± 0.47 | 72.2 ± 6.1 | 0 | 0 | 0 | 0 | 0 | 1.02 ± 1.1 | 7.37 | 5.26 | 3.89 | 3.39 | 1.84 | 3.5 | 5.62 | 3.73 ± 0.74 | 8.25 ± 0.96
2 | O=C(CCCCCCC(=O)Nc1ccccc1)NO [Vorinostat] (max concentration tested 10000 nM) | 88.6 | 90.6 | 100 | 83.9 | 101 | 79.2 | 99.6 | 103.1 ± 0.86 | 101.1 ± 0.69 | 4.21 | 2.83 | 3.21 | 5.36 | 2.31 | 7.03 ± 1.4 | 8.25 | 9.34 | 13 | 6.18 | 8.9 | 4.89 | 8.6 | 9.06 ± 1.5 | 7.84 ± 1.1
3 | N#CCNC(=O)c1ccc(-c2ccnc(Nc3ccc(N4CCOCC4)cc3)n2)cc1 [Momelotinib] (max concentration tested 10000 nM) | 81.2 | 76.8 | 55.4 | 58.8 | 41.6 | 49.2 | 60.3 | 67.1 ± 11 | 74.7 ± 4.7 | 1.87 | 0.946 | 0 | 0 | 0 | 0.683 ± 0.4 | 8.06 | 7.64 | 5.7 | 3.24 | 3.16 | 3.21 | 5.45 | 3.09 ± 0.61 | 4.7 ± 0.25
4 | CC(C)(C)Cn1c(N)nc2ccc(-c3[nH]c(C(C)(C)C)nc3-c3ccc(F)cc3)nc21 [Ralimetinib] (max concentration tested 10000 nM) | 34 | 34.9 | 41.8 | 28.7 | 28.2 | 45.7 | 54.9 | 33.8 ± 6.8 | 13.4 ± 7.5 | 0 | 0 | 0 | 0 | 0 | 0 | 3.4 | 2.2 | 7.83 | 1.33 | 2.03 | 1.76 | 2.8 | 2.27 ± 0.73 | 0.51 ± 0.72
5 | CC1(COc2ccc3c(c2)ncn3-c2ccc3cccc(N4CCC(N)CC4)c3n2)COC1 [Crenolanib] (max concentration tested 10000 nM) | 85.3 | 84.7 | 101 | 95.3 | 95 | 101 | 101 | 95.6 ± 0.82 | 95.09 ± 0.94 | 3.85 | 3.33 | 5.47 | 7.03 | 4.69 | 10.4 ± 4.5 | 5.95 | 5.48 | 5.36 | 6.09 | 8.29 | 4.89 | 10.5 | 7 ± 2.5 | 5.16 ± 0.26
6 | CC(C)(C#N)c1cc(Cn2cncn2)cc(C(C)(C)C#N)c1 [Anastrozole] (max concentration tested 10000 nM) | -11 | -2.19 | 6.26 | -1.93 | -7.93 | -11.6 | -11.4 | -9.3 ± 9.7 | -13.3 ± 6.7 | 0 | 0 | 0 | 0 | 0 | 0 | 0 | 0 | 0 | 0 | 0 | 0 | 0 | 0 | 0
7 | O=c1[nH]cc(F)c(=O)[nH]1 [Fluorouracil] (max concentration tested 10000 nM) | 55.5 | 43.5 | 25.5 | 53.4 | 4.62 | 29.4 | 35 | 11 ± 7.6 | 27.2 ± 7 | 0 | 0 | 0 | 0 | 0 | 0 | 2.86 | 1.94 | 0.94 | 6.56 | 0 | 1.09 | 1.83 | 0.493 ± 0.7 | 0.808 ± 0.45
